Read-outs that look alike come from different tables or passages of the source. Marks after values point to notes of the source that are not given here.
What was measured:
[1] = Maximum Tolerated Dose, Sprague-Dawley rats; conditions: rat, in vivo, oral, ascending dose
Protocol: The acute safety of the compounds was assessed in rats in order to enable determination of the maximum tolerated dose (MTD), an indication of a compound's safety in animals. The higher the MTD, the greater is the potential safety of the compound being tested.
Two male and two female Sprague-Dawley rats, aged 8-12 weeks, were dosed at each dose level in an ascending dose study design. The test compounds were administered orally as a suspension formulated in 0.5% carboxymethylcellulose (CMC)/0.1% Tween-80 in a dose volume of 10 mL/kg. Animals were given free access to food throughout the study.
Animals were observed on at least two occasions during the first hour following dosing, approximately 30 minutes apart, and thereafter at hourly intervals for the remainder of the dosing day for at least 4 hours. […] The nature and severity, where appropriate, of the clinical signs and time were recorded at each observation. Observations included changes in the skin, fur, eyes, and mucous membranes, and also the respiratory, circulatory, autonomic, and central nervous system, as well as somatomotor activity and behaviour pattern. Particular attention was directed towards the observation of tremors, convulsions, salivation, diarrhoea, lethargy, sleep, and coma.
At the completion of the study, the results were expressed as the maximum tolerated dose for each compound, this being the highest of each without unacceptable toxicity.
The maximum dose without unacceptable side-effects was determined to be the MTD (expressed in mg/kg).

[2] = Rodent pharmacokinetics study; type: in vivo, Sprague-Dawley rats; conditions: rat; for p.o. AUC: dosed at 10 mg/kg orally (‡)
[3] = system: collagen-induced arthritis; experiment: Mouse Collagen-Induced Arthritis; type: in vivo, DBA/1j mice
Protocol: Seven- to eight-week-old male DBA/1j mice were used for all procedures. Animals were housed in groups of 10, and were maintained at 21° C.±2° C. on a 12-hour light/dark cycle with food and water ad libitum. […]. All mice were immunised subcutaneously with 200 μg of bovine type II collagen in CFA. 21 days later, all mice were immunised subcutaneously with 100 μg of bovine type II collagen in IFA.
The mice started to develop signs and symptoms of arthritis following the ‘booster’ immunisation.
For macroscopic assessment of arthritis, the following signs were monitored in each paw of each mouse three times per week and summed to generate the Arthritic Index (AI) (the maximum AI for one animal is 16): • 0=no visible effects of arthritis. • 1=oedema and/or erythema of 1 digit. • 2=oedema and/or erythema of 2 digits. • 3=oedema and/or erythema of more than 2 digits. • 4=severe arthritis of entire paw and digits.
Animals were sorted into treatment groups with a mean arthritic index of 2.5 and then dosed once daily for 14 days with compound by oral gavage for test compounds, or by subcutaneous injection at a dose of 10 mg/kg for the positive control, etanercept. After completion of the experiment, the mice were sacrificed.
(§1) The data were analysed by generating an average of the arthritic index across each treatment group. The mean arthritic index was then compared to the arthritic index of control (untreated) animals using the following formula to generate a percentage inhibition of disease.

hERG ion channel = target: T1, hERG ion channel (Homo sapiens, UniProt Q12809); experiment: hERG Ion Channel Assay (Q-patch, hERG-CHO cells); type: cell-based; conditions: hERG tail current, hERG-CHO cells, Q-patch; read-out: IC50 (1)
T1 construct: expressed in transfected cells; host or cells: Chinese Hamster Ovary cells (hERG-CHO), stably transfected
T1 sequence (Q12809 whole entry): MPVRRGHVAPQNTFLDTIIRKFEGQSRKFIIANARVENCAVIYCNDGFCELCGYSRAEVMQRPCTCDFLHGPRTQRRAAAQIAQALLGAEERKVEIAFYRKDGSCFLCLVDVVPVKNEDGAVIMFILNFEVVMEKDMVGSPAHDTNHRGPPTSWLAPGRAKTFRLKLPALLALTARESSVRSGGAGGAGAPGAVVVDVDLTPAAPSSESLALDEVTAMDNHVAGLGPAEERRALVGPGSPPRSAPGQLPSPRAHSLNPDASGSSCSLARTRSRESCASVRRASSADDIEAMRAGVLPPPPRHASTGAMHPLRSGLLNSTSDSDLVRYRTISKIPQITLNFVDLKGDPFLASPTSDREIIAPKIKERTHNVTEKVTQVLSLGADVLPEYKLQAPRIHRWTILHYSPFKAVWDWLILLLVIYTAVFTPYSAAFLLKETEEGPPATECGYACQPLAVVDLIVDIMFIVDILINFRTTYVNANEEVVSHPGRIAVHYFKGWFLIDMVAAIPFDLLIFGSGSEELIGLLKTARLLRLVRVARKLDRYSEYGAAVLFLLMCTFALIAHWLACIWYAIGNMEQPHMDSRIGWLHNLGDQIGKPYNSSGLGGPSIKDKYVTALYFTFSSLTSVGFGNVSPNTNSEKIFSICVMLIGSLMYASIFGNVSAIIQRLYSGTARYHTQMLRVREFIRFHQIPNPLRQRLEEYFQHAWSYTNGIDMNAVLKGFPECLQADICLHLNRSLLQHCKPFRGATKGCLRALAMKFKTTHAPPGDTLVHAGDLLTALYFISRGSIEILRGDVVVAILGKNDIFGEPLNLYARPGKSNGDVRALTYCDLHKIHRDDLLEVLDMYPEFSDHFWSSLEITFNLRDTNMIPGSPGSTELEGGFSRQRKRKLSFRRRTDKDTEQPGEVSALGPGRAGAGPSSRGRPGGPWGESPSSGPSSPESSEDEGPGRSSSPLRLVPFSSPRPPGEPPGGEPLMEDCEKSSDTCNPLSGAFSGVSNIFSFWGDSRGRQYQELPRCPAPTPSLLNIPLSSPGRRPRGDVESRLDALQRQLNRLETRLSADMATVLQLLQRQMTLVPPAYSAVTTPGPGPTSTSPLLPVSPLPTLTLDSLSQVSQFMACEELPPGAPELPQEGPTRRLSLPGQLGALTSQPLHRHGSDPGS
How it was run: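 Automated whole-cell Q-patch on hERG-CHO cells (held at 30° C for 24–48 h beforehand), −80 mV holding, +20 mV for 2 s then −40 mV for 1 s to elicit tail current every 5 s. Cumulative rising concentrations, 5 min each; percent tail-current inhibition fitted to three-parameter logistic for IC50.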

[4] = system: pristane-induced arthritis; experiment: Rat Pristane-Induced Arthritis Study; type: in vivo; conditions: for % inhibition of disease: once daily for 28 days; for Tolerability during extended dosing: rat pristane-induced arthritis study, oral, up to 28 days
Protocol: Female Lewis rats were used for all procedures. Animals were housed in groups of 5, and were maintained at 21° C.±2° C. on a 12-hour light/dark cycle with food and water ad libitum. Arthritis was induced by the administration of 0.3 mL pristane intra-dermally at the base of the tail. The rats started to develop signs and symptoms of arthritis approximately seven days after the pristane injection.
For macroscopic assessment of arthritis, the following signs were monitored in each paw of each mouse three times per week and summed to generate the Arthritic Index (AI) (the maximum AI for one animal is 16): • 0=no visible effects of arthritis. • 1=oedema and/or erythema of 1 digit. • 2=oedema and/or erythema of 2 digits. • 3=oedema and/or erythema of more than 2 digits. • 4=severe arthritis of entire paw and digits including limb deformation and ankylosis of the joint.
Animals were sorted into treatment groups prior to pristane administration and dosed once daily for 28 days with test compound at doses of 3 and 10 mg/kg/day by oral gavage, or by intraperitoneal injection at a dose of 0.05 mg/kg for the positive control, methotrexate. After completion of the experiment, the rats were sacrificed.
as §1

[5] = female Sprague-Dawley rats, read-out: Maximum tolerated dose, Females
[6] = male Sprague-Dawley rats, read-out: Maximum tolerated dose, Males
[7] = 10 mg/kg/day oral gavage, once daily for 14 days, arthritic index vs control
[8] = dosed at 0.5 mg/kg intravenously (*)
[9] = dosed at 2 mg/kg intravenously (†)

Structure (SMILES)	MTD [1, 5] [mg/kg]	MTD [1, 6] [mg/kg]	% inhibition of disease [3, 7] [%]	IC50 (hERG ion channel) [µM]	also measured
Cc1cc(S(=O)(=O)NC2CCC(C)(O)CC2)ccc1-c1ccc(F)cc1F (single isomer, unassigned) [REF001, reference compound]	7.5	10			p.o. AUC [2]: 4766 ng·min/mL
Cc1cc(S(=O)(=O)N[C@H]2CC[C@H](O)CC2)ccc1-c1ccc(F)cc1F [ABD735]	20	10	44		p.o. AUC [2]: 8965 ng·min/mL
C[C@]1(O)CC[C@@H](NS(=O)(=O)c2ccc(-c3ccc(F)cc3F)cc2)CC1 [ABD899, reference compound]	30	30	77	2.9	% inhibition of disease ([4]; 3 mg/kg/day oral gavage): 21%; Tolerability during extended dosing [4]: poorly tolerated; p.o. AUC [2]: 10740 ng·min/mL
C[C@]1(O)CC[C@H](NS(=O)(=O)c2ccc(-c3ccc(Cl)cc3C#N)cc2)CC1 [HMC-C-01-A, 4′-Chloro-2′-cyano-N-((1r,4r)-4-hydroxy-4-methylcyclohexyl)biphenyl-4-sulfonamide]	70	70	40	19.3	% inhibition of disease ([3]; 0.3 mg/kg/day oral gavage, once daily for 14 days): 60%; % inhibition of disease ([3]; 1 mg/kg/day oral gavage, once daily for 14 days): 50%; % inhibition of disease ([3]; 3 mg/kg/day oral gavage, once daily for 14 days): 60%; Efficacy compared with positive control etanercept ([3]; low doses (0.3 and 3 mg/kg/day) vs etanercept 10 mg/kg subcutaneous): greater efficacy than the marketed treatment, etanercept, at low doses; % inhibition of disease ([4]; 3 mg/kg/day oral gavage): 40%; % inhibition of disease ([4]; 10 mg/kg/day oral gavage): 67%; Efficacy compared with positive control methotrexate ([4]; methotrexate 0.05 mg/kg intraperitoneal): equivalent to that of the marketed first-line therapy for rheumatoid arthritis, methotrexate; Tolerability during extended dosing [4]: tolerated well
C[C@]1(O)CC[C@@H](NS(=O)(=O)c2ccc(-c3ccc(Cl)cc3C#N)cc2)CC1 [HMC-C-01-B, 4′-Chloro-2′-cyano-N-((1s,4s)-4-hydroxy-4-methylcyclohexyl)-[1,1′-biphenyl]-4-sulfonamide]			26		
C[C@]1(O)CC[C@H](NS(=O)(=O)c2ccc(-c3ccc(F)cc3C(F)(F)F)cc2)CC1 [HMC-C-02-A, 4′-Fluoro-N-((1r,4r)-4-hydroxy-4-methylcyclohexyl)-2′-(trifluoromethyl)biphenyl-4-sulfonamide]	> 200	> 200	61	25	
C[C@]1(O)CC[C@H](NS(=O)(=O)c2ccc(-c3c(F)cc(F)cc3F)cc2)CC1 [HMC-C-03-A, 2′,4′,6′-Trifluoro-N-((1r,4r)-4-hydroxy-4-methylcyclohexyl)biphenyl-4-sulfonamide]	30	30		> 30	
C[C@]1(O)CC[C@@H](NS(=O)(=O)c2ccc(-c3c(F)cc(F)cc3F)cc2)CC1 [HMC-C-03-B, 2′,4′,6′-Trifluoro-N-((1s,4s)-4-hydroxy-4-methylcyclohexyl)-[1,1′-biphenyl]-4-sulfonamide]					i.v. AUC [2, 8]: 816* ng·min/mL
C[C@]1(O)CC[C@@H](NS(=O)(=O)c2ccc(-c3ccc(F)cc3F)c(F)c2)CC1 [HMC-C-04-B, 2,2′,4′-Trifluoro-N-((1s,4s)-4-hydroxy-4-methylcyclohexyl)-[1,1′-biphenyl]-4-sulfonamide]					i.v. AUC [2, 8]: 1589* ng·min/mL
C[C@]1(O)CC[C@H](NS(=O)(=O)c2ccc(-c3ncc(F)cc3F)c(F)c2)CC1 [HMC-N-01-A, 4-(3,5-Difluoropyridin-2-yl)-3-fluoro-N-((1r,4r)-4-hydroxy-4-methylcyclohexyl)benzenesulfonamide]	80	80	45	183	% inhibition of disease ([4]; 3 mg/kg/day oral gavage): 39%; % inhibition of disease ([4]; 10 mg/kg/day oral gavage): 60%; Tolerability during extended dosing [4]: tolerated well
C[C@]1(O)CC[C@@H](NS(=O)(=O)c2ccc(-c3ncc(F)cc3F)c(F)c2)CC1 [HMC-N-01-B, 4-(3,5-Difluoropyridin-2-yl)-3-fluoro-N-((1s,4s)-4-hydroxy-4-methylcyclohexyl)benzenesulfonamide]					% inhibition of disease ([3]; dose reduced from 10 to 1 mg/kg/day due to mortality, oral gavage): 38%
C[C@]1(O)CC[C@H](NS(=O)(=O)c2ccc(-c3ncc(F)cc3F)cc2)CC1 [HMC-N-02-A, 4-(3,5-Difluoropyridin-2-yl)-N-((1r,4r)-4-hydroxy-4-methylcyclohexyl)benzenesulfonamide]	> 200	> 200	36	231	i.v. AUC [2, 9]: 3053 ng·min/mL
C[C@]1(O)CC[C@H](NS(=O)(=O)c2ccc(-c3ncc(Cl)cc3Cl)cc2)CC1 [HMC-N-03-A, 4-(3,5-Dichloropyridin-2-yl)-N-((1r,4r)-4-hydroxy-4-methylcyclohexyl)benzenesulfonamide]	50	50		> 30	i.v. AUC [2, 9]: 5102 ng·min/mL
C[C@]1(O)CC[C@@H](NS(=O)(=O)c2ccc(-c3ncc(Cl)cc3Cl)cc2)CC1 [HMC-N-03-B, 4-(3,5-Dichloropyridin-2-yl)-N-((1s,4s)-4-hydroxy-4-methylcyclohexyl)benzenesulfonamide]					i.v. AUC [2, 8]: 1380* ng·min/mL
C[C@]1(O)CC[C@H](NS(=O)(=O)c2ccc(-c3ncc(Cl)cc3Cl)c(F)c2)CC1 [HMC-N-04-A, 4-(3,5-Dichloropyridin-2-yl)-3-fluoro-N-((1r,4r)-4-hydroxy-4-methylcyclohexyl)benzenesulfonamide]				> 30	

Reference: patent publication US9624167B2, “N-(4-hydroxy-4-methyl-cyclohexyl)-4-phenyl-benzenesulfonamides and N-(4-hydroxy-4-methyl-cyclohexyl)-4-(2-pyridyl)benzenesulfonamides and their therapeutic use” (PIMCO 2664 LIMITED, priority 2013, dated 2017)
